According to ChEMBL document CHEMBL1139187, “Hybrid molecules containing benzo[4,5]imidazo[1,2-d][1,2,4]thiadiazole and alpha-bromoacryloyl moieties as potent apoptosis inducers on human myeloid leukaemia cells” (Bioorg Med Chem Lett, 2007):
Calls of active or inactive are those of the source. No cut-off for these calls is given here.

How the values were obtained:
Type in all cases: functional, cell-based
U-937 [1] = assay: Antiproliferative activity against human U937 cells by MTT assay
HL-60 [2] = assay: Induction of apoptosis in HL60 cells assessed as cytochrome C release at 3 uM by Western blot; conditions: Homo sapiens
HL-60 [3] = assay: Induction of apoptosis in HL60 cells assessed as DNA fragmentation at 3 uM after 4 hrs by gel electrophoresis; conditions: Homo sapiens
HL-60 [4] = assay: Antiproliferative activity against HL60 cells by MTT assay; conditions: Homo sapiens
HL-60 [5] = assay: Induction of apoptosis in HL60 cells assessed as morphological changes at 3 uM after 4 hrs by phase contrast microscopy; conditions: Homo sapiens
U-937 [6] = assay: Induction of apoptosis in U937 cells assessed as caspase 3 cleavage at 3 uM by Western blot; conditions: Homo sapiens
HL-60 [7] = assay: Induction of apoptosis in HL60 cells assessed as chromatin condensation at 3 uM after 4 hrs by fluorescence microscopy; conditions: Homo sapiens
HL-60 [8] = assay: Induction of apoptosis in HL60 cells assessed as PARP cleavage at 3 uM by Western blot; conditions: Homo sapiens
SK-MEL-1 = assay: Antiproliferative activity against human SK-MEL1 cells by MTT assay
HL-60 [9] = assay: Induction of apoptosis in HL60 cells assessed as caspase 3 cleavage at 3 uM by Western blot; conditions: Homo sapiens
U-937 [10] = assay: Induction of apoptosis in U937 cells assessed as DNA fragmentation at 3 uM after 4 hrs by gel electrophoresis; conditions: Homo sapiens

Row | SMILES | IC50 (U-937 [1]) [nM] | Activity (HL-60 [2]) | Activity (HL-60 [3]) | IC50 (HL-60 [4]) [nM] | Activity (HL-60 [5]) | Activity (U-937 [6]) | Activity (HL-60 [7]) | Activity (HL-60 [8]) | IC50 (SK-MEL-1) [nM] | Activity (HL-60 [9]) | Activity (U-937 [10])
1 | C=C(Br)C(=O)Nc1ccc2sc(C(=O)NCCCCCCNc3nsc4nc5ccccc5n34)cc2c1 | 910 | Active | Active | 1240 | Active | Active | Active | Active | 8040 | Active | Active
2 | C=C(Br)C(=O)Nc1ccc2[nH]c(C(=O)NCCCCCCNc3nsc4nc5ccccc5n34)cc2c1 | 400 | Active | Active | 550 | Active | Active | Active | Active | 3020 | Active | Active
3 | C=C(Br)C(=O)Nc1ccc2[nH]c(C(=O)NCCCNc3nsc4nc5ccccc5n34)cc2c1 | 240 | Active | Active | 290 | Active | Active | Active | Active | 2090 | Active | Active
4 | C=C(Br)C(=O)Nc1ccc2oc(C(=O)NCCCCCCNc3nsc4nc5ccccc5n34)cc2c1 | 740 | Active | Active | 1720 | Active | Active | Active | Active | 8950 | Active | Active
5 | C=C(Br)C(=O)Nc1ccc2c(c1)cc(C(=O)NCCCCCCNc1nsc3nc4ccccc4n13)n2C | 890 | Active | Active | 840 | Active | Active | Active | Active | 4500 | Active | Active
